Eight molecules from paper PMC9151520 (Archives of Toxicology, 2022) can be followed below.

The EC50 is the concentration giving half of the maximal effect.

For test [1], the system named is p53 signaling (p53RE-bla HCT-116 cells). The experiment in a line: cells. In kind it is cell-based.
The test system is the same in test [2].
The test system is the same in test [3]. This is another data set of the same source.
The mark [4] stands for this setting: Homo sapiens, HCT-116, read-out: p53 activation EC50, cherry pick confirmation.
The mark [5] stands for this setting: Homo sapiens, HCT-116, read-out: p53 activation EC50, primary screening.
Where [6] appears, read: Homo sapiens, HCT-116, read-out: p53 activation efficacy, cherry pick confirmation.
Where [7] appears, read: Homo sapiens, HCT-116, read-out: p53 activation efficacy, primary screening.

The structures appear in SMILES notation. “And” between values parts separate entries of the source, which are not always exact repeats. Equal entries are not always repeated. Where two headings read alike, the source gives them in different places.

Turning to `CC(C)(C)C(=O)OCOP(=O)(COCCn1cnc2c(N)ncnc21)OCOC(=O)C(C)(C)C` [Adefovir dipivoxil], the concentration for a half-maximal effect (EC50) in test [1] (setting [4]) turned out to be 1.47 µM. Besides, in test [1] (setting [5]), the EC50 was found to be 5.18 µM. In test [1] (setting [6]), the Emax amounted to 60.8%. Moreover, in test [1] (setting [7]), the Emax amounted to 106%. Also, in test [2], the “p53 activation EC50, cherry pick confirmation” value is “inactive”; the “p53 activation EC50, primary screening” value is “inactive”; the “p53 activation efficacy, cherry pick confirmation” value was “inactive”; the “p53 activation efficacy, primary screening” value was “inactive”. Besides, in the test on p53RE-bla HCT-116 cells, the “Viability EC50, cherry pick confirmation” value is “inactive”; the “Viability EC50, primary screening” value was “inactive”; the “Viability efficacy, cherry pick confirmation” value was “inactive”; the “Viability efficacy, primary screening” value is “inactive”. In test [3], the “p53 activation EC50, cherry pick confirmation” value is “inactive”; the “p53 activation EC50, primary screening” value is “inactive”; the “p53 activation efficacy, cherry pick confirmation” value is “inactive”; the “p53 activation efficacy, primary screening” value is “inactive”.

On to `Cc1ccc([N+](=O)[O-])c(C)c1` [1,3-Dimethyl-4-nitrobenzene], for which, in test [1], the “p53 activation EC50, cherry pick confirmation” value is “inactive”; the “p53 activation EC50, primary screening” value is “inactive”; the “p53 activation efficacy, cherry pick confirmation” value was “inactive”; the “p53 activation efficacy, primary screening” value was “inactive”. Moreover, in test [2], the “p53 activation EC50, cherry pick confirmation” value is “inactive” and the “p53 activation efficacy, cherry pick confirmation” value was “inactive”. Also, in the test with p53RE-bla HCT-116 cells, the “Viability EC50, cherry pick confirmation” value was “inactive”; the “Viability EC50, primary screening” value was “inactive”; the “Viability efficacy, cherry pick confirmation” value was “inactive”; the “Viability efficacy, primary screening” value was “inactive”. Further, in test [3], the “p53 activation EC50, cherry pick confirmation” value is “inactive” and the “p53 activation efficacy, cherry pick confirmation” value was “inactive”.

As for `COP(=S)(OC)Oc1ccc([N+](=O)[O-])cc1` [Methyl parathion], the “p53 activation EC50” value in test [1] and in test [2] was “inactive” each time. Also, the p53 activation efficacy entry is “inactive” in test [1]; 52.7126 and 58.5263 in test [3]. Also, the EC50 was 7.98 µM in test [2] (read-out: p53 activation EC50) and 9.83 µM in test [3]. Moreover, the “Viability EC50” value in the test on p53RE-bla HCT-116 cells was “inactive”. The Viability efficacy result in the test with p53RE-bla HCT-116 cells was “inactive”.

As to `Oc1c(Cl)cc(Cl)cc1Sc1cc(Cl)cc(Cl)c1O` [Sodium bithionolate], in test [1], the “EC50, p53 activation, cherry pick confirmation” value is “inactive”; the “Efficacy, p53 activation, cherry pick confirmation” value is “inactive”; the “Efficacy, p53 activation, primary screening” value was 34.4493. The EC50 in test [1] (read-out: EC50, p53 activation, primary screening) amounted to 17.3 µM. Moreover, in test [2], the “EC50, p53 activation, cherry pick confirmation” value was “inactive”; the “EC50, p53 activation, primary screening” value was “inactive”; the “Efficacy, p53 activation, cherry pick confirmation” value is “inactive”; the “Efficacy, p53 activation, primary screening” value is “inactive”. Also, in the test on p53RE-bla HCT-116 cells, the “EC50, viability, cherry pick confirmation” value was “inactive” and the “EC50, viability, primary screening” value is “inactive”. Further, the EC50 in the test on p53RE-bla HCT-116 cells (read-out: EC50, viability, cherry pick confirmation) is 46.5 µM and 39.1 µM. Besides, the concentration giving a half-maximal response (EC50) in the test on p53RE-bla HCT-116 cells (read-out: EC50, viability, primary screening) is 43.5 µM and 45.5 µM. Further, in test [3], the “EC50, p53 activation, cherry pick confirmation” value was “inactive”; the “EC50, p53 activation, primary screening” value is “inactive”; the “Efficacy, p53 activation, cherry pick confirmation” value was “inactive”; the “Efficacy, p53 activation, primary screening” value is “inactive”.

`N=C1NC(=N)c2cc3ccccc3cc21` [1,3-Diiminobenz(f)isoindoline]: the p53 activation efficacy in test [1] was 115.412 and 121.93. Further, the EC50 in test [1] (read-out: p53 activation EC50) is 23.7 µM and 25.2 µM. Also, the “p53 activation EC50” value in test [2] and in test [3] was “inactive” each time. Further, in the test with p53RE-bla HCT-116 cells, the “Viability EC50” value is “inactive”.

Take `C/C=C(/C(=C/C)c1ccc(O)cc1)c1ccc(O)cc1` [Dienestrol]: the EC50 in test [1] (setting [4]) was 7.79 µM. Besides, in test [1] (setting [5]), the EC50 is 7.81 µM. Further, the Emax in test [1] (setting [6]) stood at 36.1%. Moreover, the Emax in test [1] (setting [7]) is 32.6%. Besides, in test [2], the “p53 activation EC50, cherry pick confirmation” value is “inactive”; the “p53 activation EC50, primary screening” value is “inactive”; the “p53 activation efficacy, cherry pick confirmation” value was “inactive”; the “p53 activation efficacy, primary screening” value is “inactive”. For the same molecule, in the test with p53RE-bla HCT-116 cells, the “Viability EC50, cherry pick confirmation” value was “inactive”; the “Viability EC50, primary screening” value was “inactive”; the “Viability efficacy, cherry pick confirmation” value is “inactive”; the “Viability efficacy, primary screening” value is “inactive”. Besides, in test [3], the “p53 activation EC50, cherry pick confirmation” value was “inactive”; the “p53 activation EC50, primary screening” value was “inactive”; the “p53 activation efficacy, cherry pick confirmation” value is “inactive”; the “p53 activation efficacy, primary screening” value is “inactive”.

Take `C[C@H]1CCCC(=O)CCC/C=C/c2cc(O)cc(O)c2C(=O)O1` [Zearalenone]: in test [1], the “p53 activation EC50, cherry pick confirmation” value was “inactive” and the “p53 activation efficacy, cherry pick confirmation” value is “inactive”. Besides, the EC50 in test [1] (setting [5]) is 16.8 µM. The Emax in test [1] (setting [7]) was 49.2%. Also, in test [2], the “p53 activation EC50, cherry pick confirmation” value was “inactive”; the “p53 activation EC50, primary screening” value was “inactive”; the “p53 activation efficacy, cherry pick confirmation” value was “inactive”; the “p53 activation efficacy, primary screening” value was “inactive”. In the test with p53RE-bla HCT-116 cells, the “Viability EC50, cherry pick confirmation” value was “inactive”; the “Viability EC50, primary screening” value is “inactive”; the “Viability efficacy, cherry pick confirmation” value is “inactive”; the “Viability efficacy, primary screening” value is “inactive”. Also, in test [3], the “p53 activation EC50, cherry pick confirmation” value is “inactive”; the “p53 activation EC50, primary screening” value is “inactive”; the “p53 activation efficacy, cherry pick confirmation” value is “inactive”; the “p53 activation efficacy, primary screening” value is “inactive”.

Take `CN1C(=O)N(c2ccccc2Br)Cc2cnc(Nc3ccc4c(c3)OCC(CO)O4)nc21` (stereo not drawn) [PharmaGSID_48519]: in test [1], the “p53 activation efficacy, cherry pick confirmation” value worked out at 31.694 and the “p53 activation efficacy, primary screening” value came to 31.571. In test [1] (read-out: p53 activation EC50, cherry pick confirmation), the concentration giving a half-maximal response (EC50) was determined as 13.6 µM. For the same molecule, the EC50 in test [1] (read-out: p53 activation EC50, primary screening) was found to be 9.59 µM. Moreover, in test [2], the “p53 activation EC50, cherry pick confirmation” value is “inactive”; the “p53 activation EC50, primary screening” value was “inactive”; the “p53 activation efficacy, cherry pick confirmation” value is “inactive”; the “p53 activation efficacy, primary screening” value was “inactive”. Moreover, in the test with p53RE-bla HCT-116 cells, the “Viability EC50, cherry pick confirmation” value was “inactive”; the “Viability EC50, primary screening” value was “inactive”; the “Viability efficacy, cherry pick confirmation” value was “inactive”; the “Viability efficacy, primary screening” value is “inactive”. Moreover, in test [3], the “p53 activation EC50, cherry pick confirmation” value was “inactive”; the “p53 activation EC50, primary screening” value is “inactive”; the “p53 activation efficacy, cherry pick confirmation” value was “inactive”; the “p53 activation efficacy, primary screening” value was “inactive”.
